Test system: tumors from Prkci^fl/fl Prkcz^fl/fl Villin-cre (DKO) mice
Test: scRNAseq and IHC of DKO mouse intestinal tumors treated with PVHA or Galunisertib
Format: in vivo
Experimental: FIG. 3A illustrates the experimental design: Prkci^fl/flPrkcz^fl/fl (DKO) mice were treated either with PVHA (0.0375 mg/Kg twice per week) or Galunisertib (10 mg twice daily) as described. Intestinal tumors were analyzed by scRNAseq.
To identify the mechanism of action of PVHA in the treatment of CMS4 tumors, scRNAseq was performed using 10× Genomics Chromium platform on tumors from Prkci^fl/fl Prkcz^fl/fl Villin-cre (DKO) mice (n=5) treated with PVHA for 14 weeks (n=3), as compared to those treated with Galunisertib (GAL) for 17 weeks (n=3), as shown in experimental design (FIG. 3A). Unsupervised clustering identified tumor and normal epithelial cells as well as stromal and immune cells with selective markers for each population (FIGS. 3B-3C). […] Among tumor clusters (0,4,6), a cell population with transcriptomic similarities to the recently identified “revival stem cells” (RSC; high Clu) in the vehicle treated tumors was identified (FIGS. 3F-3G).

Structure (SMILES): Cc1cccc(-c2nn3c(c2-c2ccnc4ccc(C(N)=O)cc24)CCC3)n1 [GAL, Galunisertib, reference compound]
- Cd8 T cells, cell type proportion (scRNAseq T cells): increase
- fibroblast clusters associated with human CRC (Grem1/Sfrp1, Igf1/Cxcl14), CMS4 subtype (Sfrp2) and tumor initiation (Ptgs2/Spp1) (scRNAseq cell-type proportion): complete elimination
- tumoral goblet population (scRNAseq goblet cells): reduction
- T cells, cell-type proportion (scRNAseq immune cells): increase
- myeloid cells, cell-type proportion (scRNAseq immune cells): decrease
- TAN1 (anti-tumoral neutrophils) (scRNAseq myeloid cells): only increased
- TAN2 (pro-tumoral neutrophils) (scRNAseq myeloid cells): without affecting
- percentage of stromal and immune cells (scRNAseq, PVHA 0.0375 mg/Kg twice per week, 14 weeks, Galunisertib 10 mg twice daily, 17 weeks): decreased
- number of stromal cells (scRNAseq, without apparent changes in cell-type proportions): reduced
